Test results taken from ChEMBL document CHEMBL5316302, “Deciphering Nonbioavailable Substructures Improves the Bioavailability of Antidepressants by Serotonin Transporter” (J Med Chem, 2023).
Active and inactive are the calls of the source. The rule behind the calls is not given here.

How the values were obtained:
[1] = Half life in Sprague-Dawley rat at 2.5 mg/kg, po measured upto 24 hrs by LC-MS/MS analysis; type: ADME, organism-based; conditions: in vivo
[2] = Clearance in Sprague-Dawley rat at 1 mg/kg, iv measured upto 24 hrs by LC-MS/MS analysis; type: ADME, organism-based; conditions: in vivo; for CL: iv, 1 mg/kg, 24 h
[3] = Cmax in Beagle dog at 1 mg/kg, iv measured upto 24 hrs by LC-MS/MS analysis; type: ADME, organism-based, Canis lupus familiaris; design: dose 1 mg/kg, time < 24 hrs, route iv; conditions: in vivo
[4] = Drug concentration in Sprague-Dawley rat brain at 10 mg/kg, ip measured at 15 min by LC/MS-MS analysis; type: ADME, organism-based; conditions: read-out: Ct
[5] = AUC (0 to t) in Sprague-Dawley rat at 2.5 mg/kg, po measured upto 24 hrs by LC-MS/MS analysis; type: ADME, organism-based; design: dose 2.5 mg/kg, time < 24 hrs, route po; conditions: in vivo
[6] = AUC (0 to t) in Beagle dog at 5 mg/kg, po measured upto 24 hrs by LC-MS/MS analysis; type: ADME, organism-based, Canis lupus familiaris; design: dose 5 mg/kg, time < 24 hrs, route po; conditions: in vivo
[7] = Oral bioavailability in Sprague-Dawley rat at 5 mg/kg measured upto 24 hrs by LC-MS/MS analysis; type: ADME, organism-based; conditions: in vivo
[8] = Ratio of drug concentration in brain to plasma in Sprague-Dawley rat at 10 mg/kg, ip measured at 120 min by LC-MS/MS analysis; type: ADME, organism-based; conditions: read-out: BPR
Hypothalamus [9] = test: Inhibition of PCA-induced serotonin depletion in Sprague-Dawley rat hypothalamus assessed as recovery of 5-HT concentration at 3 mg/kg, ip by HPLC analysis; type: functional, organism-based
[10] = AUC (0 to t) in Beagle dog at 1 mg/kg, iv measured upto 24 hrs by LC-MS/MS analysis; type: ADME, organism-based, Canis lupus familiaris; design: dose 1 mg/kg, time < 24 hrs, route iv; conditions: in vivo
[11] = Cmax in Beagle dog at 5 mg/kg, po measured upto 24 hrs by LC-MS/MS analysis; type: ADME, organism-based, Canis lupus familiaris; design: time < 24 hrs, dose 5 mg/kg, route po; conditions: in vivo
[12] = AUC (0 to t) in Sprague-Dawley rat at 1 mg/kg, iv measured upto 24 hrs by LC-MS/MS analysis; type: ADME, organism-based; design: time < 24 hrs, dose 1 mg/kg, route iv; conditions: in vivo; for AUCt: 24 h
[13] = Oral bioavailability in Sprague-Dawley rat at 2.5 mg/kg measured upto 24 hrs by LC-MS/MS analysis; type: ADME, organism-based; conditions: in vivo
[14] = Half life in Beagle dog at 5 mg/kg, po measured upto 24 hrs by LC-MS/MS analysis; type: ADME, organism-based, Canis lupus familiaris; conditions: in vivo
[15] = Volume of distribution at steady state in Sprague-Dawley rat at 1 mg/kg, iv measured upto 24 hrs by LC-MS/MS analysis; type: ADME, organism-based; conditions: in vivo, read-out: Vdss
[16] = Drug concentration in Sprague-Dawley rat plasma at 10 mg/kg, ip measured at 120 min by LC/MS-MS analysis; type: ADME, organism-based
Hypothalamus [17] = test: Inhibition of PCA-induced serotonin depletion in Sprague-Dawley rat hypothalamus assessed as recovery of 5-HT concentration at 10 mg/kg, ip by HPLC analysis (Rvb= 200 ng/g); type: functional
[18] = Drug concentration in Sprague-Dawley rat plasma at 10 mg/kg, ip measured at 60 min by LC/MS-MS analysis; type: ADME, organism-based
[19] = Drug concentration in Sprague-Dawley rat brain at 10 mg/kg, ip measured at 60 min by LC/MS-MS analysis; type: ADME, organism-based; conditions: read-out: Ct
[20] = Ratio of drug concentration in brain to plasma in Sprague-Dawley rat at 10 mg/kg, ip measured at 15 min by LC-MS/MS analysis; type: ADME, organism-based; conditions: read-out: BPR
[21] = Ratio of drug concentration in brain to plasma in Sprague-Dawley rat at 10 mg/kg, ip measured at 60 min by LC-MS/MS analysis; type: ADME, organism-based; conditions: read-out: BPR
[22] = Drug concentration in Sprague-Dawley rat plasma at 10 mg/kg, ip measured at 15 min by LC/MS-MS analysis; type: ADME, organism-based
[23] = Cmax in Sprague-Dawley rat at 2.5 mg/kg, po measured upto 24 hrs by LC-MS/MS analysis; type: ADME, organism-based; design: dose 2.5 mg/kg, time < 24 hrs, route po; conditions: in vivo
[24] = Drug concentration in Sprague-Dawley rat brain at 10 mg/kg, ip measured at 120 min by LC/MS-MS analysis; type: ADME, organism-based; conditions: read-out: Ct
Rattus norvegicus [25] = test: Antidepressant activity in Sprague-Dawley rat assessed as reduction in immobility time at 3 mg/kg ip measured after 15 mins by forced swim test; type: functional; conditions: 0.25 h
[26] = Half life in Beagle dog at 1 mg/kg, iv measured upto 24 hrs by LC-MS/MS analysis; type: ADME, organism-based, Canis lupus familiaris; conditions: in vivo
[27] = Half life in Sprague-Dawley rat at 1 mg/kg, iv measured upto 24 hrs by LC-MS/MS analysis; type: ADME, organism-based; conditions: in vivo
[28] = Volume of distribution at steady state in Beagle dog at 1 mg/kg, iv measured upto 24 hrs by LC-MS/MS analysis; type: ADME, organism-based, Canis lupus familiaris; conditions: in vivo, read-out: Vdss
[29] = target: Sodium-dependent serotonin transporter (Homo sapiens, UniProt P31645); test: Inhibition of SERT receptor (unknown origin)
[30] = Clearance in Beagle dog at 1 mg/kg, iv measured upto 24 hrs by LC-MS/MS analysis; type: ADME, organism-based, Canis lupus familiaris; conditions: in vivo
[31] = Cmax in Sprague-Dawley rat at 1 mg/kg, iv measured upto 24 hrs by LC-MS/MS analysis; type: ADME, organism-based; design: time < 24 hrs, dose 1 mg/kg, route iv; conditions: in vivo
[32] = Oral bioavailability in human at 2.5 to […]; type: ADME, organism-based; conditions: in vivo, dose lower 2.5 mg/kg
Rattus norvegicus [33] = test: Antidepressant activity in ip dosed Sprague-Dawley rat assessed as reduction in immobility time measured after 15 mins by forced swim test; type: functional, organism-based; conditions: dose 3-10 mg/kg
Hypothalamus [34] = test: Inhibition of PCA-induced serotonin depletion in Sprague-Dawley rat hypothalamus assessed as recovery of 5-HT concentration at 1 mg/kg, ip by HPLC analysis; type: functional, organism-based
Rattus norvegicus [35] = test: Antidepressant activity in Sprague-Dawley rat assessed as reduction in immobility time at 10 mg/kg ip measured after 15 mins by forced swim test; type: functional; conditions: 0.25 h

Sodium-dependent serotonin transporter, sequence (P31645 whole entry): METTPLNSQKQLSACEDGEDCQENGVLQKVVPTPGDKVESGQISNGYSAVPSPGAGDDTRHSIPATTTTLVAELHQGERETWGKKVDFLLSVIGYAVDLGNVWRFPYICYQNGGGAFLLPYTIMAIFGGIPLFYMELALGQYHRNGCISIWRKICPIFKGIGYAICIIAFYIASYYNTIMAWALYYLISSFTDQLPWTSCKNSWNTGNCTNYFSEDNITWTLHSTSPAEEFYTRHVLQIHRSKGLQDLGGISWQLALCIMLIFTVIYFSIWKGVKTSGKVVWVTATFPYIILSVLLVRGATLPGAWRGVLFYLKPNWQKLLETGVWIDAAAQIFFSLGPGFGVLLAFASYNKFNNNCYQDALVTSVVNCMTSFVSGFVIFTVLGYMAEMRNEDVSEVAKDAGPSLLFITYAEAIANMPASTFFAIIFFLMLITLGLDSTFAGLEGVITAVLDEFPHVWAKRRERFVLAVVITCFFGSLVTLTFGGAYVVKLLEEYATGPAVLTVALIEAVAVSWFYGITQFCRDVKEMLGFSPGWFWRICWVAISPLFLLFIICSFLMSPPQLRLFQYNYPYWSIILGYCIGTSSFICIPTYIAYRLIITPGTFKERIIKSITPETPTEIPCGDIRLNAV

| SMILES | half-life [1] [h] | Cmax [3] [ng/mL] | AUC(0-t) at 24 h [5] [ng·h/mL] | AUC(0-t) at 24 h [6] [ng·h/mL] | bioavailability [7] [%] | AUCt [10] [ng·h/mL] | Cmax [11] [ng/mL] | bioavailability [13] [%] | half-life [14] [h] | Vd [15] [L/kg] | Cmax [23] [ng/mL] | half-life [26] [h] | half-life [27] [h] | Vd [28] [L/kg] | IC50 [29] [nM] | CL [2] [mL/min/kg] | CL [30] [mL/min/kg] | AUCt [12] [ng·h/mL] | Cmax [31] [ng/mL] | other results |
| --- | --- | --- | --- | --- | --- | --- | --- | --- | --- | --- | --- | --- | --- | --- | --- | --- | --- | --- | --- | --- |
| N#Cc1ccc2[nH]cc(CCCCN3CCN(c4ccc5oc(C(N)=O)cc5c4)CC3)c2c1 [VILAZODONE] | 2.9 | 488 | 443 | 2020 | 52.5 | 791 | 454 | 47.5 | 2.15 | 3.74 | 173 | 1.32 | 1.45 | 2.14 |  |  |  |  |  | clearance ([2]; Sprague-Dawley): 40.2 mL/min/kg; concentration at 0.25 h [4]: 190 ng/g; Kp at 2 h [8]: 0.53; Activity (Hypothalamus [9]): Active; AUC(0-t) at 24 h ([12]; Sprague-Dawley): 409 ng·h/mL; concentration at 2 h [16]: 861 ng/mL; Activity (Hypothalamus [17]): 400 ng/g; concentration at 1 h [18]: 1330 ng/mL; concentration at 1 h [19]: 606 ng/g; Kp at 0.25 h [20]: 0.56; Kp at 1 h [21]: 0.46; concentration at 0.25 h [22]: 1330 ng/mL; concentration at 2 h [24]: 457 ng/g; Time (Rattus norvegicus [25]): 100 s |
| COc1cc(F)ccc1-c1cnc(N2CCN(CCCCc3c[nH]c4ccc(C#N)cc34)CC2)nc1 |  |  |  |  |  |  |  |  |  |  |  |  |  |  | < 2 |  |  |  |  |  |
| N#Cc1ccc2[nH]cc(CCCCN3CCN(c4ncc(-c5ccc(Cl)cc5)cn4)CC3)c2c1 | 9.73 | 536 | 2950 | 6800 | 47.8 | 2840 | 820 | 52.6 | 15.7 | 5.46 | 207 | 20.8 | 9.52 | 5.52 | 0.32 | 125 | 61 | 1870 | 444 |  |
| N#Cc1ccc2[nH]cc(CCCCN3CCN(c4ncc(-c5ccc(C(N)=O)cc5)cn4)CC3)c2c1 |  |  |  |  |  |  |  |  |  |  |  |  |  |  | < 2 |  |  |  |  |  |
| N#Cc1ccc2[nH]cc(CCCCN3CCN(c4ncc(-c5ccc(F)cc5)cn4)CC3)c2c1 |  |  |  |  |  |  |  |  |  |  |  |  |  |  | < 2 |  |  |  |  |  |
| COc1ccccc1-c1cnc(N2CCN(CCCCc3c[nH]c4ccc(C#N)cc34)CC2)nc1 |  |  |  |  |  |  |  |  |  |  |  |  |  |  | < 2 |  |  |  |  |  |
| Cc1ccc(Sc2ccccc2N2CCNCC2)c(C)c1 [VORTIOXETINE] |  |  |  |  |  |  |  |  |  |  |  |  |  |  |  |  |  |  |  | bioavailability [32]: 75% |
| N#Cc1ccc2[nH]cc(CCCCN3CCN(c4ncc(-c5cccc(C(N)=O)c5)cn4)CC3)c2c1 | 1.95 | 1100 | 706 | 4310 | 37.2 | 2330 | 662 | 39.2 | 4.46 | 2.33 | 241 | 4.68 | 1.59 | 2.13 | 0.35 | 382 | 118 | 722 | 400 |  |
| N#Cc1ccc2[nH]cc(CCCCN3CCN(c4ncc(-c5ccc(F)cc5F)cn4)CC3)c2c1 | 7.28 | 520 | 2790 | 7540 | 53.5 | 2820 | 794 | 83.3 | 16.4 | 6.41 | 180 | 4.39 | 7.53 | 3.4 | 0.58 | 193 | 85.7 | 1340 | 193 | concentration at 0.25 h [4]: 459 ng/g; Activity (Rattus norvegicus [33]): Dose-Dependent Effect; Activity (Hypothalamus [34]): Active; Kp at 2 h [8]: 3.17; Time (Rattus norvegicus [35]): <100 s; concentration at 2 h [16]: 935 ng/mL; Activity (Hypothalamus [17]): 500 ng/g; concentration at 1 h [18]: 651 ng/mL; concentration at 1 h [19]: 2240 ng/g; Kp at 0.25 h [20]: 1.82; Kp at 1 h [21]: 3.45; concentration at 0.25 h [22]: 253 ng/mL; concentration at 2 h [24]: 2960 ng/g |
